The nature of this assay: Cytotoxicity against mouse B16 cells assessed as decrease in cell viability after 48 hrs by MTT assay. It is filed as functional, cell-based. Particulars: B16, 48 h.

One may read the IC50 as the concentration needed to halve the response being measured. For `COc1ccc(Cn2cc(-c3ccc(OC)cc3)nn2)cc1`, the IC50 is above 100 µM.
For `Cc1ccc(C(O)c2cn(Cc3ccccc3)nn2)cc1` (stereo unspecified) the value was above 100 µM.
For `COc1ccc(-c2cn(C[C@H]3COC(C)(C)O3)nn2)cc1` the value was above 100 µM.
The value for `COc1ccc(C(O)c2cn(C[C@H]3COC(C)(C)O3)nn2)cc1` (stereo partly specified) was above 100 µM; that for `CCOC(=O)Cn1cc(C(O)c2ccc3ccccc3c2)nn1` (stereo unspecified) was above 100 µM; that for `COc1ccc(Cn2cc(C(O)c3ccc(OC)c(OC)c3OC)nn2)cc1` (stereo unspecified) was above 100 µM.
Consider `COc1ccc(Cn2cc(-c3ccc([N+](=O)[O-])cc3)nn2)cc1`, for which the half-inhibitory concentration (IC50) worked out at 19.1 µM.
For the compound `CC1(C)OC[C@H](Cn2cc(-c3ccc(C(F)(F)F)cc3)nn2)O1`, the IC50 was above 100 µM.
Turning to `COc1ccc(Cn2cc(-c3ccc(C(F)(F)F)cc3)nn2)cc1`, the concentration for half-maximal inhibition (IC50) was determined as 17.4 µM.
Consider `COc1ccc(Cn2cc(-c3ccc4ccccc4c3)nn2)cc1`, for which the IC50 is above 100 µM.
Turning to `CCOC(=O)Cn1cc(-c2ccc([N+](=O)[O-])cc2)nn1`, the IC50 was above 100 µM.
In the case of `COc1ccc(-c2cn(C[C@H]3COC(C)(C)O3)nn2)c(OC)c1OC`, the IC50 was above 100 µM.
For the compound `O=[N+]([O-])c1ccc(-c2cn(Cc3ccccc3)nn2)cc1`, the IC50 amounted to 5.12 µM.
The value for `COc1ccc(Cn2cc(-c3ccc(C)cc3)nn2)cc1` was 19.5 µM.
In the case of `COc1ccc(C(O)c2cn(C[C@H]3COC(C)(C)O3)nn2)c(OC)c1OC` (stereo partly specified), the half-maximal inhibitory concentration (IC50) was above 100 µM.
`CC1(C)OC[C@H](Cn2cc(-c3ccc4ccccc4c3)nn2)O1`: the IC50 came to 12 µM.
For the compound `COc1ccc(-c2cn(CCO)nn2)cc1`, the IC50 was above 100 µM.
As for `CC1(C)OC[C@H](Cn2cc(C(O)c3ccc([N+](=O)[O-])cc3)nn2)O1` (stereo partly specified), the concentration for half-maximal inhibition (IC50) is above 100 µM.
In the case of `COc1ccc(C(O)c2cn(CCO)nn2)c(OC)c1OC` (stereo unspecified), the half-maximal inhibitory concentration (IC50) was above 100 µM.
For `Cc1ccc(-c2cn(C[C@H]3COC(C)(C)O3)nn2)cc1`, the IC50 is above 100 µM.
The value for `CC1(C)OC[C@H](Cn2cc(-c3ccc([N+](=O)[O-])cc3)nn2)O1` was above 100 µM; that for `COc1ccc(Cn2cc(C(O)c3ccc(C)cc3)nn2)cc1` (stereo unspecified) was above 100 µM; that for `COc1ccc(Cn2cc(C(O)c3ccc(OC)cc3)nn2)cc1` (stereo unspecified) was above 100 µM.
Regarding `COc1ccc(Cn2cc(C(O)c3ccc([N+](=O)[O-])cc3)nn2)cc1` (stereo unspecified), the half-inhibitory concentration (IC50) was above 100 µM.
As to `COc1ccc(C(O)c2cn(CCO)nn2)cc1` (stereo unspecified), the concentration for half-maximal inhibition (IC50) is above 100 µM.
The value for `CCOC(=O)Cn1cc(-c2ccc3ccccc3c2)nn1` was above 100 µM; that for `Cc1ccc(C(O)c2cn(C[C@H]3COC(C)(C)O3)nn2)cc1` (stereo partly specified) was above 100 µM; that for `COc1ccc(-c2cn(Cc3ccccc3)nn2)cc1` was above 100 µM.
Consider `OC(c1ccc(C(F)(F)F)cc1)c1cn(Cc2ccccc2)nn1` (stereo unspecified), for which the IC50 is above 100 µM.
The value for `CCOC(=O)Cn1cc(-c2ccc(OC)c(OC)c2OC)nn1` was above 100 µM.
The value for `OCCn1cc(-c2ccc(C(F)(F)F)cc2)nn1` was above 100 µM.
For the compound `COc1ccc(-c2cn(Cc3ccccc3)nn2)c(OC)c1OC`, the IC50 stood at 27.5 µM.
The value for `c1ccc(Cn2cc(-c3ccc4ccccc4c3)nn2)cc1` was 3.89 µM; that for `COc1ccc(Cn2cc(-c3ccc(OC)c(OC)c3OC)nn2)cc1` was above 100 µM; that for `Cc1ccc(-c2cn(CCO)nn2)cc1` was above 100 µM.
The value for `OCCn1cc(-c2ccc3ccccc3c2)nn1` was above 100 µM; that for `FC(F)(F)c1ccc(-c2cn(Cc3ccccc3)nn2)cc1` was above 100 µM; that for `OC(c1ccc2ccccc2c1)c1cn(Cc2ccccc2)nn1` (stereo unspecified) was 28.8 µM.
As to `Cc1ccc(-c2cn(Cc3ccccc3)nn2)cc1`, the half-maximal inhibitory concentration (IC50) was above 100 µM.
For `CC1(C)OCC(Cn2cc(C(O)c3ccc(C(F)(F)F)cc3)nn2)O1` (racemic) the value was above 100 µM; for `CC1(C)OCC(Cn2cc(C(O)c3ccc4ccccc4c3)nn2)O1` (racemic), 26.9 µM; for `Cc1ccc(-c2cn(CC3COC(C)(C)O3)nn2)cc1` (racemic), 41.7 µM.
As for `CC1(C)OCC(Cn2cc(-c3ccc([N+](=O)[O-])cc3)nn2)O1` (racemic), the half-inhibitory concentration (IC50) is above 100 µM.
Take `CC1(C)OCC(Cn2cc(-c3ccc4ccccc4c3)nn2)O1` (racemic): the IC50 worked out at 6.6 µM.
With `CC1(C)OCC(Cn2cc(-c3ccc(C(F)(F)F)cc3)nn2)O1` (racemic), the IC50 is 13.5 µM.
For `Cc1ccc(C(O)c2cn(CC3COC(C)(C)O3)nn2)cc1` (racemic) the value was above 100 µM.

The values above are taken from ChEMBL document CHEMBL3867425, “Synthesis and cytotoxicity evaluation of aryl triazolic derivatives and their hydroxymethine homologues against B16 melanoma cell line” (Eur J Med Chem, 2016).
